For 32 compounds, IC50 results are on record in US11512069B2, “TLR7/8 antagonists and uses thereof” (Merck Patent GmbH, priority 2016, dated 2022).

The target of this assay is T1, TLR7 (Homo sapiens, UniProt Q9NYK1).
T1 construct: expressed in transfected cells; host or cells: HEK cells carrying TLR7 and an NF-kB reporter read with Steady-Glo
T1 sequence (Q9NYK1 27-1049): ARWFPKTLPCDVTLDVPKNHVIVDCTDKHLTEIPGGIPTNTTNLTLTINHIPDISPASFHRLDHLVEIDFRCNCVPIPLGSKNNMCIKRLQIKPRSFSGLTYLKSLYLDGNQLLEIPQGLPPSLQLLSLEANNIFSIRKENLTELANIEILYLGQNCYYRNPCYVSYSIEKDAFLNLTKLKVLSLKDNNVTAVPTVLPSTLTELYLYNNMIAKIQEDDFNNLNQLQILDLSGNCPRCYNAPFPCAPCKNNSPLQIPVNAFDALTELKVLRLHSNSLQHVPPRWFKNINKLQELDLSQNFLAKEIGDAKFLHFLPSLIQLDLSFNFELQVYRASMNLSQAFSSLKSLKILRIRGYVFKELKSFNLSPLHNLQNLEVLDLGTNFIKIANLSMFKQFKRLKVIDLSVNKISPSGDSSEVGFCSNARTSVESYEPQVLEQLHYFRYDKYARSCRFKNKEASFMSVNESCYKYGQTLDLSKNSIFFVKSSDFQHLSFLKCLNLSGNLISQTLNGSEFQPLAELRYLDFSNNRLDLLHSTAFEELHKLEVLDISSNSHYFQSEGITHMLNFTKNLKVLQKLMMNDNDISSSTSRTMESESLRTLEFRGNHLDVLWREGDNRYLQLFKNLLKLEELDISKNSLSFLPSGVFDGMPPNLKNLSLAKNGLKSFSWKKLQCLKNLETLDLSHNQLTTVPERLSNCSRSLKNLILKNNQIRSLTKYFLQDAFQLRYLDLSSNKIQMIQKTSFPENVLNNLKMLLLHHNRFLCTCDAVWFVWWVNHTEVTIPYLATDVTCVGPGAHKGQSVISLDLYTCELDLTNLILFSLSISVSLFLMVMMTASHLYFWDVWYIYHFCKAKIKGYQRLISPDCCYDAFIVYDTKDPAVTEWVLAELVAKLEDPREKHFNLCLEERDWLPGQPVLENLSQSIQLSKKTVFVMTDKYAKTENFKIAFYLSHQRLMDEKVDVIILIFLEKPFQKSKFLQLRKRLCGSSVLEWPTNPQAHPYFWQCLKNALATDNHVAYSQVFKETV
Put plainly: HEK Cell Assay (TLR7/NFKb HEK reporter cells, Steady-Glo). Particulars: compound 30 min, then R*48 agonist 5 hours, Steady-Glo readout, read-out: Potency. It counts as cell-based. The procedure, abridged: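 TLR7/NF-κB HEK reporter cells cultured 24 h, then pre-incubated 30 min with compound before adding R*48 agonist. Luciferase read by Steady-Glo luminescence after 5 h.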

Bounds are passed on as bounds.

For the compound `C[C@@H]1C[C@H](c2ccc(C#N)c3ncccc23)CN(CC(N)=O)C1` (relative stereo) [Compound 67], the IC50 was more than 20000 nM. As for `CC1CC(c2ccc(C(F)(F)F)c3ncccc23)CN(C(=O)CC2CCN(C)CC2)C1` (centres unmarked) [Compound 3, 2-(1-Methyl-piperidin-4-yl)-1-[3-methyl-5-(8-trifluoromethyl-quinolin-5-yl)-piperidin-1-yl]-ethanone], the figure is less than 1000 nM.

Turning to `C[C@@H]1C[C@H](N)C[C@H](c2ccc(C(F)(F)F)c3nccnc23)C1` [Compound 142, (1S,3S,5R)-3-methyl-5-(8-(trifluoromethyl)quinoxalin-5-yl)cyclohexanamine], the IC50 was less than 1000 nM. For the compound `Cc1ccc([C@H]2C[C@H](C)CN(C(=O)CC3CCN(C)CC3)C2)c2cccnc12` [Compound 83, 1-[(3S,5R)-3-Methyl-5-(8-methyl-quinolin-5-yl)-piperidin-1-yl]-2-(1-methyl-piperidin-4-yl)-ethanone], the IC50 was less than 1000 nM. As for `C[C@@H]1C[C@H](c2ccc(C#N)c3ncccc23)CN(C(=O)CN2CC3CCC2CN3)C1` (mixture of isomers) [Compound 116, 5-[(3R,5R)-1-(2-2,5-Diaza-bicyclo[2.2.2]oct-2-yl-acetyl)-5-methyl-piperidin-3-yl]-quinoline-8-carbonitrile], the figure is less than 1000 nM; as for `C[C@@H]1C[C@H](c2ccc(C#N)c3ncccc23)CN(C(=O)C[C@@H]2[C@H]3CN(C)C[C@@H]23)C1` [Compound 78], less than 1000 nM.

`COCCN[C@H]1C[C@@H](C)C[C@H](c2ccc(C(F)(F)F)c3nccnc23)C1` [Compound 150, (1S,3S,5S)—N-(2-methoxyethyl)-3-methyl-5-(8-(trifluoromethyl)quinoxalin-5-yl)cyclohexanamine]: the IC50 is more than 20000 nM. The figure for `COCCN[C@@H]1C[C@H](C)C[C@H](c2ccc(C#N)c3nccnc23)C1` (relative stereo) [Compound 133, 8-[(cis-1,3,5)-3-[(2-methoxyethyl)amino]-5-methylcyclohexyl]quinoxaline-5-carbonitrile] is less than 1000 nM; for `COc1ncc([C@H]2C[C@@H](C)CN(C(=O)CC3CCN(C)CC3)C2)c2cccnc12` [Compound 89, 1-[(3R,5R)-3-(8-Methoxy-[1,7]naphthyridin-5-yl)-5-methyl-piperidin-1-yl]-2-(1-methyl-piperidin-4-yl)-ethanone] it is 1000 to 20000 nM; for `COCCN[C@H]1C[C@@H](C)C[C@@H](c2ccc(C(F)(F)F)c3ncccc23)C1` [Compound 153, (1S,3S,5R)—N-(2-methoxyethyl)-3-methyl-5-(8-(trifluoromethyl)quinolin-5-yl)cyclohexanamine] it is 1000 to 20000 nM.

`C[C@H]1C[C@@H](NC(=O)CN(C)C)C[C@H](c2ccc(C#N)c3nccnc23)C1` (racemic) [Compound 132, N-[(1,cis-3,trans-5,cis)-3-(8-cyanoquinoxalin-5-yl)-5-methylcyclohexyl]-2-(dimethylamino)acetamide]: the IC50 was in the range of 1000 to 20000 nM. As for `C[C@H]1C[C@@H](NC(=O)[C@H](N)C(F)(F)F)C[C@H](c2ccc(C#N)c3nccnc23)C1` (racemic) [Compound 145, (2R)-2-amino-N-((1,cis-3cis-5,trans)-3-(8-cyanoquinoxalin-5-yl)-5-methylcyclohexyl)-3,3,3-trifluoropropanamide], the figure is 1000 to 20000 nM; as for `C[C@@H]1C[C@H](c2ccc(C#N)c3ncccc23)CN(CC(=O)Nc2cnn(C)c2)C1` (relative stereo) [Compound 76, cis-2-[3-(8-Cyano-quinolin-5-yl)-5-methyl-piperidin-1-yl]-N-(1-methyl-1H-pyrazol-4-yl)-acetamide], more than 20000 nM; as for `C[C@@H]1C[C@H](c2ccc(C(F)(F)F)c3ncccc23)CN(C)C1` (relative stereo) [Compound 5], more than 20000 nM.

Regarding `Cc1ccc([C@H]2C[C@@H](C)CN(C(=O)CC3CCN(C)CC3)C2)c2cccnc12` [Compound 81, 1-[(3R,5R)-3-Methyl-5-(8-methyl-quinolin-5-yl)-piperidin-1-yl]-2-(1-methyl-piperidin-4-yl)-ethanone], the IC50 is less than 1000 nM.

As to `CC(=O)N1C[C@@H](C)C[C@H](c2ccc(C(F)(F)F)c3ncccc23)C1` (relative stereo) [Compound 9, trans-1-[3-Methyl-5-(8-trifluoromethyl-quinolin-5-yl)-piperidin-1-yl]-ethanone], the IC50 is more than 20000 nM. On to `C[C@@H]1C[C@H](c2ccc(C#N)c3ncccc23)CN(C(=O)CC(F)(F)F)C1` (relative stereo) [Compound 26], for which the IC50 is more than 20000 nM.

As to `C[C@H]1C[C@@H](NC(=O)CN2CCN(C)CC2)C[C@@H](c2ccc(C#N)c3nccnc23)C1` (racemic) [Compound 158, N-[(cis-1,3,5)-3-(8-cyanoquinoxalin-5-yl)-5-methylcyclohexyl]-2-(4-methylpiperazin-1-yl)acetamide], the IC50 was less than 1000 nM. `C[C@@H]1C[C@H](c2ccc(C#N)c3ncccc23)CN(C(=O)CN2CCC3(CC2)CNC3)C1` [Compound 117, 5-[(3R,5R)-1-(2-2,7-Diaza-spiro[3.5]non-7-yl-acetyl)-5-methyl-piperidin-3-yl]-quinoline-8-carbonitrile]: the IC50 was 1000 to 20000 nM.

`C[C@H]1C[C@@H](N)C[C@@H](c2ccc(C#N)c3nccnc23)C1` (racemic) [Compound 120, 8-((S,3R,5R)-3-amino-5-methylcyclohexyl) quinoxaline-5-carbonitrile]: the IC50 was less than 1000 nM.

Regarding `C[C@@H]1C[C@H](c2ccc(C(F)(F)F)c3ncccc23)CN(C(=O)CC2CCN(C)CC2)C1` [Compound 42, 2-(1-Methyl-piperidin-4-yl)-1-[(3R,5R)-3-methyl-5-(8-trifluoromethyl-quinolin-5-yl)-piperidin-1-yl]-ethanone], the IC50 was less than 1000 nM. Consider `C[C@@H]1C[C@@H](c2ccc(C#N)c3ncccc23)CN(CC(=O)NCCN2CCN(C)CC2)C1` (relative stereo) [Compound 73, trans-2-[3-(8-Cyano-quinolin-5-yl)-5-methyl-piperidin-1-yl]-N-[2-(4-methyl-piperazin-1-yl)-ethyl]-acetamide], for which the IC50 fell in the range of 1000 to 20000 nM. `COCCN[C@@H]1C[C@H](C)C[C@H](c2ccc(C(F)(F)F)c3nccnc23)C1` [Compound 147, (1R,3R,5S)—N-(2-methoxyethyl)-3-methyl-5-(8-(trifluoromethyl)quinoxalin-5-yl)cyclohexanamine]: the IC50 was more than 20000 nM. As for `C[C@@H]1C[C@@H](c2ccc(C(F)(F)F)c3ncccc23)CN(C)C1` (relative stereo) [Compound 6], the figure is more than 20000 nM; as for `COCCN[C@@H]1C[C@H](C)C[C@H](c2ccc(C(F)(F)F)c3ncccc23)C1` [Compound 152, (1R,3R,5S)—N-(2-methoxyethyl)-3-methyl-5-(8-(trifluoromethyl)quinolin-5-yl)cyclohexanamine], more than 20000 nM; as for `C[C@@H]1C[C@H](c2ccc(C#N)c3ncccc23)CN(C(=O)C[C@@H]2CCN(C)CC2(F)F)C1` [Compound 92, 5-((3R,5R)-1-[2-((S)-3,3-Difluoro-1-methyl-piperidin-4-yl)-acetyl]-5-methyl-piperidin-3-yl}-quinoline-8-carbonitrile], less than 1000 nM. The figure for `C[C@@H]1C[C@H](c2ccc(OC(F)(F)F)c3ncccc23)CN(C(=O)CN2CCN(C)CC2)C1` [Compound 105, 2-(4-Methyl-piperazin-1-yl)-1-[(3R,5R)-3-methyl-5-(8-trifluoromethoxy-quinolin-5-yl)-piperidin-1-yl]-ethanone] is 1000 to 20000 nM.

For the compound `C[C@@H]1C[C@H](c2ccc(C#N)c3ncccc23)CN(C(=O)C2CN(C)C2)C1` (relative stereo) [Compound 31], the IC50 is 1000 to 20000 nM. The figure for `COCCN[C@@H]1C[C@H](C)C[C@@H](c2ccc(C(F)(F)F)c3nccnc23)C1` [Compound 149, (1R,3R,5R)—N-(2-methoxyethyl)-3-methyl-5-(8-(trifluoromethyl)quinoxalin-5-yl)cyclohexanamine] is 1000 to 20000 nM; for `CNC(=O)CCN1CC(C)CC(c2ccc(C#N)c3ncccc23)C1` (centres unmarked) [Compound 50] it is more than 20000 nM.

As for `C[C@@H]1C[C@H](c2ccc(C#N)c3ncccc23)CN(C(=O)CC2CCN(C)CC2)C1` [Compound 1], the IC50 was less than 1000 nM. The figure for `CC1CC(c2ccc(C(F)(F)F)c3ncccc23)CN(C(=O)CCN2CCN(C)CC2)C1` (centres unmarked) [Compound 11, 3-(4-Methyl-piperazin-1-yl)-1-[3-methyl-5-(8-trifluoromethyl-quinolin-5-yl)-piperidin-1-yl]-propan-1-one] is 1000 to 20000 nM.
